Laboratory results as given in ChEMBL document CHEMBL1909046, “DrugMatrix in vitro pharmacology data”.

Assays:
[1] = target: T1, Cytochrome P450 2A6 (Homo sapiens, UniProt P11509); conditions: bti-tn-5b1-4; also: in other assays of this panel Not Active means under 50% inhibition at 10 µM
T1 sequence (P11509 whole entry): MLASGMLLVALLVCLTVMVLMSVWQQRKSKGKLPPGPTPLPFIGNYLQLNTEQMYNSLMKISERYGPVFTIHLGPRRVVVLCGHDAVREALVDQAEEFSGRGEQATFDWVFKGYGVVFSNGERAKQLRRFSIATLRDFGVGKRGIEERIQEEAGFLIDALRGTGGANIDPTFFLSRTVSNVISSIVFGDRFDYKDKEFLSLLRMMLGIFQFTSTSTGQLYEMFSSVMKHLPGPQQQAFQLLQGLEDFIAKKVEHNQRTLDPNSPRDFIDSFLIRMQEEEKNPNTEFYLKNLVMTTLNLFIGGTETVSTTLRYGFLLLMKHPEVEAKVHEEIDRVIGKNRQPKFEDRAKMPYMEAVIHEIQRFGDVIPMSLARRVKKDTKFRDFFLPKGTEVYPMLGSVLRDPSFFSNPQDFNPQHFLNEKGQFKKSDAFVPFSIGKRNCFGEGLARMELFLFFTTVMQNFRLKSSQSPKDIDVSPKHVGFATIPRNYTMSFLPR

[2] = target: Carbonic anhydrase 2 (Homo sapiens, UniProt P00918); test: DRUGMATRIX: Carbonic Anhydrase II enzyme inhibition (substrate: 4-Nitrophenyl acetate (4-NPA)); assay type: tissue-based, Erythrocyte; conditions: Not Active = under 50% inhibition at 10 µM; read-out: IC50
[3] = target: Cytochrome P450 2D6 (Homo sapiens, UniProt P10635); conditions: bti-tn-5b1-4; also: in other assays of this panel Not Active means under 50% inhibition at 10 µM
Chain of Cytochrome P450 2D6 (P10635 whole entry): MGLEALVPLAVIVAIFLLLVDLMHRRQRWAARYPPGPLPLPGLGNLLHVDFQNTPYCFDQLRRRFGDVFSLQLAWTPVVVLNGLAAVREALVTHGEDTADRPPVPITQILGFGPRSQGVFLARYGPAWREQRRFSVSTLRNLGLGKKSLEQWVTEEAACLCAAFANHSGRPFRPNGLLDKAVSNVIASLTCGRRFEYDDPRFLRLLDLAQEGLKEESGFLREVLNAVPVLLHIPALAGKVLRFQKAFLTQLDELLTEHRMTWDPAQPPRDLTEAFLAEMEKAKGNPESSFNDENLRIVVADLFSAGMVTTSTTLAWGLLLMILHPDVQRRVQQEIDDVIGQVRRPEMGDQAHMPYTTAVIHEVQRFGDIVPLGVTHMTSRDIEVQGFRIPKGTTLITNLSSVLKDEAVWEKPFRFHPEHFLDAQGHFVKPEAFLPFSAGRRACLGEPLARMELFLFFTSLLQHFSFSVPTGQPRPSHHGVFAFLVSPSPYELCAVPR

[4] = DRUGMATRIX: Calcium Channel Type L, Benzothiazepine radioligand binding (ligand: [3H] Diltiazem); assay type: cell membranes, Rattus norvegicus, Wistar, Brain, Membrane; conditions: Not Active = under 50% inhibition at 10 µM
[5] = target: T2, Glucocorticoid receptor (Homo sapiens, UniProt P04150); conditions: hela s3; also: in other assays of this panel Not Active means under 50% inhibition at 10 µM
T2 sequence (P04150 whole entry): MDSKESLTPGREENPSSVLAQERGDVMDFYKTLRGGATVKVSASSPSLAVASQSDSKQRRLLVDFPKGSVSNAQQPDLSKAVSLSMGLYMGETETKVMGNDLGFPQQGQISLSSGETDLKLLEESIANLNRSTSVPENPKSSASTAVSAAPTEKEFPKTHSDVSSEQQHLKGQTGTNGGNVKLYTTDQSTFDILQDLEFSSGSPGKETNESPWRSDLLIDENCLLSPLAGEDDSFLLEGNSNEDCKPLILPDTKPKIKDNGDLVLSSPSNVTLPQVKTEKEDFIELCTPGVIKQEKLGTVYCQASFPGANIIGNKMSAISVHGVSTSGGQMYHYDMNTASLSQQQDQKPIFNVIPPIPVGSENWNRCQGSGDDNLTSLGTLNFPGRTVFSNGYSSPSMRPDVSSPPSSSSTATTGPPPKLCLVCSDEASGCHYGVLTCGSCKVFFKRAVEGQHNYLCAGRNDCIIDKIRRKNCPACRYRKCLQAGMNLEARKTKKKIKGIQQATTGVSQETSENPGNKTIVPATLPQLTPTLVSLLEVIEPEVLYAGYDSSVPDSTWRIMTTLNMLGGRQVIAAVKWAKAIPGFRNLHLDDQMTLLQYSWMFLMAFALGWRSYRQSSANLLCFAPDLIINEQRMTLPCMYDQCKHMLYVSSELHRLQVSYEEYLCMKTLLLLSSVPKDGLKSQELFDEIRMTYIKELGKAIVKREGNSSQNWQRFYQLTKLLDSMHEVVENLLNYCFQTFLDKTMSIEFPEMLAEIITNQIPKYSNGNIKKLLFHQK

[6] = DRUGMATRIX: GABAA, Flunitrazepam, Central radioligand binding (ligand: [3H] Flunitrazepam); assay type: cell membranes, Rattus norvegicus, Wistar, Brain, Membrane; conditions: Not Active = under 50% inhibition at 10 µM
[7] = target: T3, Estrogen receptor (Homo sapiens, UniProt P03372); conditions: sf9; also: in other assays of this panel Not Active means under 50% inhibition at 10 µM
T3 sequence (P03372 whole entry): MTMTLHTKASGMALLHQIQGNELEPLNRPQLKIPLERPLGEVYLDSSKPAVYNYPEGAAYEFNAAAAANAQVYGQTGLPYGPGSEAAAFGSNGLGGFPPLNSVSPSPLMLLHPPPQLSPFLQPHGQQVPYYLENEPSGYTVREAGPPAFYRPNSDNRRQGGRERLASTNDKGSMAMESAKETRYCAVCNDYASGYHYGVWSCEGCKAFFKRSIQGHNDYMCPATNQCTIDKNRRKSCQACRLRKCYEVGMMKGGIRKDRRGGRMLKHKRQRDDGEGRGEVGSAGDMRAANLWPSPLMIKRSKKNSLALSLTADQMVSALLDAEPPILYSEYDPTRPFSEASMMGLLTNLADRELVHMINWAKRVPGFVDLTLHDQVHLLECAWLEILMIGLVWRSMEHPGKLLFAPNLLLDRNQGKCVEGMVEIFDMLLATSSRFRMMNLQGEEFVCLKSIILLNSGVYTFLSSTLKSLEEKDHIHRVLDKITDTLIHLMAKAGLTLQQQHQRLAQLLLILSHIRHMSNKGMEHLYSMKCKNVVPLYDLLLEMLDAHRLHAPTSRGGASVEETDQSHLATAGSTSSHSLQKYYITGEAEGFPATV

[8] = target: Matrix metalloproteinase-9 (Homo sapiens, UniProt P14780); test: biochemical; assay type: cell-based
Chain of Matrix metalloproteinase-9 (P14780 whole entry): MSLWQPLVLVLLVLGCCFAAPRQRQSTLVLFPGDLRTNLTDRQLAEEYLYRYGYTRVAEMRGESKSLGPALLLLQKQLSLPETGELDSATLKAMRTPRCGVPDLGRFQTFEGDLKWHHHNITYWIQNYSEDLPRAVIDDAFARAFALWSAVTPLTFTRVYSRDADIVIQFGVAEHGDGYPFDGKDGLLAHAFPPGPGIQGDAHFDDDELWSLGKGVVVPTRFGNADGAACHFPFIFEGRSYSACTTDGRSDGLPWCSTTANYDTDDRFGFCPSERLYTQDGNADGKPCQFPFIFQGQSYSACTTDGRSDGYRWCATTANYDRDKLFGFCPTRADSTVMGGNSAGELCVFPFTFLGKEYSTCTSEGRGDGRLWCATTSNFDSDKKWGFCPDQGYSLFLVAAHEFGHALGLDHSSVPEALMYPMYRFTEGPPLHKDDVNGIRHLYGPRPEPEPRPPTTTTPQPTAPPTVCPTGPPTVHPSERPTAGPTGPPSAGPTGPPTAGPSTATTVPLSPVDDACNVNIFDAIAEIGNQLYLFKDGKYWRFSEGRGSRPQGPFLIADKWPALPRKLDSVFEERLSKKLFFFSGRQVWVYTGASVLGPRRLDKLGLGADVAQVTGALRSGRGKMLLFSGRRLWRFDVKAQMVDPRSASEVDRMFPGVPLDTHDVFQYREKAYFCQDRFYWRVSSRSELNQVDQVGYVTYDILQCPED

[9] = target: T4, Muscarinic acetylcholine receptor M2 (Homo sapiens, UniProt P08172); assay type: cell membranes, CHO-K1, Membrane; conditions: cho-k1; also: in other assays of this panel Not Active means under 50% inhibition at 10 µM
T4 sequence (P08172 whole entry): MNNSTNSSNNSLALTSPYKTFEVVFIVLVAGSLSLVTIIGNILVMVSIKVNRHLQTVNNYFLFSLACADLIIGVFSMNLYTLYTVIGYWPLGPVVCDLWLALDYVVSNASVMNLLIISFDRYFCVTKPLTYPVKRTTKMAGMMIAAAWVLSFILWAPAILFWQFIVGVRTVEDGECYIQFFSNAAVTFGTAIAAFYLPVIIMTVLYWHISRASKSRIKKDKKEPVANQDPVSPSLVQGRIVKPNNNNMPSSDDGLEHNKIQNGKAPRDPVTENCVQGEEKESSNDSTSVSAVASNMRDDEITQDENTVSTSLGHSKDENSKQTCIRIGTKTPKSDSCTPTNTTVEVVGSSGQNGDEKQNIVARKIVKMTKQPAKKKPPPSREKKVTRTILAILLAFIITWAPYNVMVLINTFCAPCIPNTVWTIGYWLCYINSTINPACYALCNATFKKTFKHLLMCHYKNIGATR

[Cl-].[Cl-].[Zn+2] [ZINC CHLORIDE]
IC50 [1]: Not Active | Ki [1]: Not Active | IC50 [2]: 1.16 µM | IC50 [3]: Not Active | Ki [3]: Not Active | IC50 [4]: Not Active | Ki [4]: Not Active | IC50 [5]: Not Active | IC50 [6]: Not Active | Ki [6]: Not Active | IC50 [7]: Not Active | IC50 [8]: Not Active | IC50 [9]: Not Active
